This passage reports IC50 and outcome results from PubChem BioAssay AID549 (SRMLSC, 2006).

What is called IC50 is the concentration that gives 50% inhibition.

The source made the active and inactive calls.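 The calls were made as follows: active = clearly stronger inhibition of phosphomevalonate kinase than of the coupling enzymes alone in a parallel counterscreen; inactive = the rest.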

Target in one experiment: not listed separately
Put plainly: S. pneumoniae PMK inhibitor potency, dose response, biochemical, mevalonate pathway, coupling enzyme counter-screen (AID 549). Particulars: PK/LDH coupled NADH absorbance 340 nm, measured here: coupling enzymes counter-screen (hexokinase).
On to `CCOC(=O)C1=C(C)NC(=O)NC1c1c(C)nn(-c2ccccc2)c1Cl` (centres undefined), for which the IC50 is 3.54 µM.
Still for that read-out and setting: as for `CCOC(=O)N1C(=O)c2cc(OC)ccc2S1(=O)=O`, the figure is 18.6 µM; as for `COc1cccc(OC)c1-c1nn2c(-c3cc(-c4ccccc4)n[nH]3)nnc2s1`, 42.7 µM.
`O=c1c2ccccc2[se]n1-c1ccccc1` yielded an IC50 of 73.1 µM.
In turn, `CCOC(=O)c1cc2c(=O)n3cccc(C)c3nc2n(CCCOC)c1=NC(=O)c1cccnc1` gave an IC50 of 13.6 µM.

For a further experiment, the target named is phosphomevalonate kinase (Streptococcus pneumoniae D39). Described as above. Particulars: PK/LDH coupled NADH absorbance 340 nm.
In the case of `CCOC(=O)C1=C(C)NC(=O)NC1c1c(C)nn(-c2ccccc2)c1Cl` (centres undefined), the IC50 entry is “inactive”.
On to `CCOC(=O)N1C(=O)c2cc(OC)ccc2S1(=O)=O`, for which the IC50 result was “inactive”.
Still for that read-out and setting: as for `COc1cccc(OC)c1-c1nn2c(-c3cc(-c4ccccc4)n[nH]3)nnc2s1`, the entry is “inactive”; as for `O=c1c2ccccc2[se]n1-c1ccccc1`, “inactive”.
As to `Cc1nn(Cc2ccccc2)c2c1C(c1ccncc1)C(C#N)=C(N)O2` (centres undefined), the result was inactive.
For `CCOC(=O)c1cc2c(=O)n3cccc(C)c3nc2n(CCCOC)c1=NC(=O)c1cccnc1`, the IC50 result was “inactive”.
Turning to `CC(C)(C)NS(=O)(=O)c1ccc(NS(=O)(=O)c2ccc(F)cc2)cc1`, the result was inactive.
Still for that read-out and setting: the value for `OC1(CN2CCOCC2)C2CN3CCN(C2)CC1(c1ccccc1)C3` (centres undefined) was “inactive”.
Still for that read-out and setting: as for `CON(C)c1nc(OCCNC(=O)OCc2ccc(Cl)cc2Cl)nc(N(C)C)n1`, the entry is “inactive”; as for `CCOC(=O)C(CCc1nnc(N)s1)C(=O)OCC`, “inactive”; as for `COc1cc(-c2nnc(COc3ccc4ccccc4c3)o2)cc(OC)c1OC`, “inactive”.
The same measure, in the same setting: as for `CCNc1nc(NC(C)(C)C)nc(N(C#N)CC)n1`, the entry is “inactive”; as for `O=C(O)C1=C(C(=O)Nc2ccc(F)c(Cl)c2)CCCC1`, “inactive”.
For `COc1ccc(NC(=O)N(C2CCCCC2)C(C)c2ccco2)c(OC)c1` (centres undefined), the result was inactive.
Same read-out and setting: as for `CCOC(=O)CNC(=O)Nc1nnc(-c2ccc(OCC)cc2)o1`, the entry is “inactive”; as for `CNS(=O)(=O)c1cccc(C(=O)OC2CCCCC2=O)c1` (centres undefined), “inactive”; as for `CCOC(=O)c1[nH]nc(C(=O)c2ccc(Br)cc2)c1O`, “inactive”.
Still for that read-out and setting: the value for `c1ccc(CCn2nnnc2C(c2cccs2)N2CCOCC2)cc1` (centres undefined) was “inactive”; that for `O=S(=O)(Nc1ccc(S(=O)(=O)N2CCOCC2)cc1)c1ccccc1` was “inactive”.
Still for that read-out and setting: as for `COCC(=O)N(C)c1nnc(-c2cnc(C)cn2)s1`, the entry is “inactive”.
On to `CNC(=O)Cn1ncc2c(C)n(Cc3ccc(C)cc3)c(C)c2c1=O`, for which the outcome was inactive.
On the same count and under the same terms, as for `COc1cc2nc(C3CCC3)n(NC(=O)C3CCCC(OC)C3)c(=O)c2cc1OC` (centres undefined), the entry is “inactive”; as for `COc1ccc(C2(C)NC(=O)N(Cc3cc(Cl)cc4c3OCOC4)C2=O)cc1OC` (centres undefined), “inactive”; as for `COCCNC(=O)c1ccc2c(c1)NC(=O)CS2`, “inactive”.
Take `CCOCCCNC(=O)C1CCN(S(=O)(=O)N2CC(C)CC(C)C2)CC1` (centres undefined): the outcome was inactive.
The same measure, in the same setting: as for `COc1ccc(N2CCN(C(c3ccco3)c3sc4nc(C)nn4c3O)CC2)cc1` (centres undefined), the entry is “inactive”; as for `O=C(Nn1c(C2CC2)nc2ccccc2c1=O)c1ccco1`, “inactive”; as for `CCc1ccc(OCc2nnc(SCC(=O)NCc3ccco3)o2)cc1`, “inactive”.
Still for that read-out and setting: as for `O=C(Nc1ccc(F)cc1)N(CCCN1CCOCC1)Cc1cc2cc3c(cc2[nH]c1=O)OCO3`, the entry is “inactive”.
